According to patent publication US8900591B2, “Vaccines comprising mutant GPCRs with increased conformational stability relative to parent receptors” (Heptares Therapeutics Limited, priority 2010, dated 2014):

Assays:
[1] = test system: 5-HT2A, 5-HT2B and 5-HT2C serotonin receptors; settings: cited from earlier work
[2] = test system: endogenous β1AR in untransfected HEK293s; test: CRE-luc reporter assay on untransfected HEK293 cells; type: cell-based, human; settings: 1 μM forskolin, non-transfected cells
Source text: One read-out that can be employed to assess the functional activity of the resulting sera is the impact on cAMP signalling. The CRE-luc reporter assay was employed where the CRE response from activation of AC-cAMP-PKA pathway is the read-out.
The first interim bleeds were initially evaluated only on transfected cells to assess if any functional response could be observed at this stage of immunisation. […].

| Compound | potency for 5-HT2C receptors relative to 5-HT2A [1] | selectivity for 5-HT2A over 5-HT2B [1] | CRE-luc response to forskolin stimulation [2] |
| --- | --- | --- | --- |
| C[C@@H](N)Cc1c2ccoc2c(Br)c2ccoc12 [Bromo-DragonFLY] | twice as potent | less than 5 × |  |
| C=C[C@@]1(C)CC(=O)[C@]2(O)[C@@]3(C)[C@@H](O)CCC(C)(C)[C@@H]3[C@H](O)[C@H](OC(C)=O)[C@@]2(C)O1 [forskolin] |  |  | ~20,000 RLU |
